Source: patent publication US20240368122A1, “JAK2 INHIBITORS AND METHODS OF USE THEREOF” (RELAY THERAPEUTICS, INC., priority 2021, published 2024)
Like-named read-outs stand apart in the source and are kept apart here.

Assays:
[1] = biological target: T1, JAK2 JH2 WT (V536-D812) [W659A, W777A, F794H solubilizing mutations] (Homo sapiens, UniProt O60674, F794H/W659A/W777A); assay: Surface Plasmon Resonance (SPR) binding assay, JAK2 JH2 domain
T1 construct: **JAK2 JH2 WT (V536-D812) [W659A, W777A, F794H solubilizing mutations]; C-thrombin-avi-His6; thrombin cleavage site (C); His6 (C); purchased Biortus
T1 sequence (O60674 536-812 W659A/W777A/F794H): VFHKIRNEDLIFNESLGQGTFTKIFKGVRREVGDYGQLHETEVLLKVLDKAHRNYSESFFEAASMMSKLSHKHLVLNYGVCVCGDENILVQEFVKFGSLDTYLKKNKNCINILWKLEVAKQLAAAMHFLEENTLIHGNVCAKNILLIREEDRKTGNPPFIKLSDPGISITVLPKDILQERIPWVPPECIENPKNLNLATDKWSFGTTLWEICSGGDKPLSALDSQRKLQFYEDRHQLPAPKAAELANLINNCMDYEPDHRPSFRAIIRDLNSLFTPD
Description: Selected compounds of the present disclosure were tested in a Surface Plasmon Resonance (SPR) Assay to measure their binding kinetics and affinity for proteins of interest.
Prepare buffer: 50 mM HEPES pH 7.5, 150 mM NaCl, 0.05% (v/v) Tween, and 10% (v/v) glycerol were combined and pH was adjusted to 7.5, then filtered. 5 mM DTT, was added, and buffer without DMSO was reserved for compound resuspension. 2% (v/v) DMSO was added for assay buffer, and separately 1% DMSO was used to make buffer for resuspending compounds.
Prepare compounds: Using a Bravo liquid handler, 99 μL of 1% (v/v) DMSO assay buffer was added to 1 μL compounds in DMSO.
Run 8K Method: Biotin CAPture (CAP) chip surface was regenerated prior to run by: Inserting CAP chip into Biacore 8K, prime machine with assay buffer with 2% (v/v) DMSO; Setting instrument temperature to 20° C.; Conditioning surface with NaOH/GdnHCl reagents from CAP chip kit (60 seconds, 10 μL/min); and Capturing oligo-Streptavidin (SA) reagent from CAP kit (600 seconds, 1 μL/min), expected capture ˜2500 RU. JAK2 JH1 or JH2 protein was immobilized by preparing a sample of 0.5 uM JH1 or 0.4 uM JH2 protein diluted in assay buffer without DMSO and supplemented with 10 uM of a selected compound of the invention as a stabilizer (370 seconds, 5 uL/min), expected capture ˜1000 RU. Remaining biotin sites on SA were blocked with 1 uM biotin (30 seconds, 20 uL/min), then equilibrated for 1800 seconds at 100 uL/min. Compounds being assayed were run in single cycle kinetics: 4 doses with a top concentration of 5 uM (JH1) or 500 nM (JH2), dilution factor of 3, at 20° C., for a contact time of 60 seconds, and a dissociation time of 300 seconds (JH1) or 1200 seconds (JH2), at a flow rate of 30 uL/min. The surface was completely regenerated after each compound is run, and JH1 or JH2 protein was immobilized fresh prior to each new compound. Data were fitted kinetically with 1:1 binding model using Biacore Insight Evaluation Software.

[2] = system: TF1 JAK2 V617F STAT3 reporter; assay: Cellular TF1 STAT3 assay (luciferase reporter), JAK2 V617F; assay type: cell-based; conditions: read-out: Cell PD-TF1 JAK2 V617F STAT3 (IC50)
Description: (§1) Selected compounds of the present disclosure were tested in a Cellular TF1 STAT3 or STAT5 assay, to measure the degree of JAK2-mediated STAT3 or STAT5 phosphorylation, respectively. TF1 cells (immortalized erythroleukemia line) expressing either wildtype or V617F mutant JAK2 with a luciferase reporter were used.
(§2) Cell culture: Cells were put into antibiotic selection (1 ug/ml puro+500 ug/ml Geneticin) when first thawed then maintained in growth media without antibiotics. Cells were maintained in exponential growth phase, between 0.02-1 E6 cells/ml.
(§3) Compound preparation: Compounds were screened as 10-point dose response curves 1:3 dilutions. DMSO is used as the vehicle control. All wells were normalized to the same final DMSO concentration. Compounds were pre-spotted onto 384 well plates using an Echo acoustic dispenser, 50 nL of 1000× (10 mM top concentration) DMSO stock/well. Each compound is run in triplicate plates.
(§4) Cell plating: Cells were counted using Vi-Cell XR, then cells were spun down and resuspended in growth media to 200,000 cells/ml. Cells were added to plates containing compound. 10,000 cells/well in 50 ul volume using a Biomek liquid handler. Plates were briefly mixed on a shaker for 1 minute at 2500 rpm then placed in a 37° C., 5% CO2 incubator overnight for 18-20 hrs.
(§5) Measuring luciferase activity: ONE-glo reagent was brought to room temperature, and 25 μL of ONE-glo assay reagent was added to each well using Biomek liquid handler. The plates were incubated for 10 minutes at room temperature, then luminescence was measured on an Envision plate reader.

[3] = system: TF1 JAK2 V617F STAT5 reporter; assay: Cellular TF1 STAT5 assay (luciferase reporter), JAK2 V617F; assay type: cell-based; conditions: read-out: Cell PD TF1 V617F STAT5 (IC50)
Description: as §1, §2, §3, §4, §5

[4] = Homo sapiens, TF-1, TF1 cells, JAK2 V617F

SMILES	Kd [1] [nM]	IC50 [2, 4] [nM]	IC50 [3, 4] [nM]	Kd ([1]; SPR, JAK2 JH2 domain) [nM]	IC50 ([2]; TF1 JAK2 V617F) [nM]	IC50 ([3]; TF1 JAK2 V617F) [nM]
CNC(=O)c1nnc(NC(=O)C2CC2)cc1Nc1cccc(-c2cnn([C@@H]3CN(Cc4cccnn4)[C@H]3C)c2)c1OC (stereo in doubt) [Compound 323]	0.01 to 10	500 to 5000	500 to 5000			
CNC(=O)c1nnc(NC(=O)C2CC2)cc1Nc1cccc(-c2ccc(C(=O)N(CCOC)Cc3cccn(C)c3=O)nc2)c1OC [Compound 15]				0.01 to 10	5000 to 100000	5000 to 100000
CNC(=O)c1nnc(NC(=O)C2CC2)cc1Nc1cccc(-c2ccc(C(=O)N(Cc3cccn(C)c3=O)CC(F)F)nc2)c1OC [Compound 16]				0.01 to 10	500 to 5000	5000 to 100000
CNC(=O)c1nnc(NC(=O)C2CC2)cc1Nc1cccc(-c2ccc(C(=O)N(C)Cc3cc(C#N)ccn3)nc2OC)c1OC [Compound 20]				0.01 to 10	500 to 5000	500 to 5000
CNC(=O)c1nnc(NC(=O)C2CC2)cc1Nc1cccc(-c2cnc(C(=O)N(CCOC)Cc3cccn(C)c3=O)c(F)c2)c1OC [Compound 21]				0.01 to 10	500 to 5000	500 to 5000
CNC(=O)c1nnc(NC(=O)C2CC2)cc1Nc1cccc(-c2ccc(C(=O)N(C)Cc3cccn(C)c3=O)nc2)c1OC [Compound 23]				0.01 to 10	500 to 5000	50 to 500
CNC(=O)c1nnc(NC(=O)C2CC2)cc1Nc1cccc(-c2cnc(C(=O)N(C)Cc3cccn(C)c3=O)cc2C)c1OC [Compound 24]				0.01 to 10	500 to 5000	500 to 5000
CNC(=O)c1nnc(NC(=O)C2CC2)cc1Nc1cccc(-c2ccc(C(=O)N(C)Cc3cccn(C)c3=O)nc2OC)c1OC [Compound 25]				0.01 to 10	500 to 5000	500 to 5000
CNC(=O)c1nnc(NC(=O)C2CC2)cc1Nc1cccc(-c2ccc(C(=O)N(C)Cc3cnc4ccc(Cl)cn34)nc2)c1OC [Compound 31]				0.01 to 10	500 to 5000	500 to 5000
CNC(=O)c1nnc(NC(=O)C2CC2)cc1Nc1cccc(-c2ccc(C(=O)N(C)Cc3cccnn3)nc2)c1OC [Compound 45]				0.01 to 10	500 to 5000	500 to 5000
CNC(=O)c1nnc(NC(=O)C2CC2)cc1Nc1cccc(-c2ccc(C(=O)N(C)Cc3ccccc3C(F)(F)F)nc2)c1OC [Compound 52]				0.01 to 10	500 to 5000	500 to 5000
CNC(=O)c1nnc(NC(=O)C2CC2)cc1Nc1cccc(-c2cnc(C(=O)N(C)Cc3nn(C)cc3Br)nc2)c1OC [Compound 56]				0.01 to 10	50 to 500	50 to 500
CNC(=O)c1nnc(NC(=O)C2CC2)cc1Nc1cccc(-c2ccc(C(=O)N(C)Cc3nccs3)nc2)c1OC [Compound 58]				0.01 to 10	500 to 5000	500 to 5000

The remaining lines, values ahead:

Kd [1] [nM]	IC50 [2, 4] [nM]	IC50 [3, 4] [nM]	Kd ([1]; SPR, JAK2 JH2 domain) [nM]	IC50 ([2]; TF1 JAK2 V617F) [nM]	IC50 ([3]; TF1 JAK2 V617F) [nM]	SMILES
0.01 to 10	50 to 500	50 to 500				CNC(=O)c1nnc(NC(=O)C2CC2)cc1Nc1cccc(-c2cn([C@H]3CN(Cc4cccc(C)n4)[C@@H]3C)nn2)c1OC (stereo in doubt) [Compound 235]
0.01 to 10	50 to 500	50 to 500				CNC(=O)c1nnc(NC(=O)C2CC2)cc1Nc1cccc(-c2cn([C@H]3CN(Cc4cccc(Cl)n4)[C@@H]3C)nn2)c1OC (stereo in doubt) [Compound 236]
0.01 to 10	500 to 5000	500 to 5000				CNC(=O)c1nnc(NC(=O)C2CC2)cc1Nc1cccc(-c2cn(C3CN(Cc4cccc(C#N)n4)[C@@H]3C)nn2)c1OC (stereo in doubt) [Compound 237]
0.01 to 10	500 to 5000	500 to 5000				CNC(=O)c1nnc(NC(=O)C2CC2)cc1Nc1cccc(-c2cn([C@@H]3CN(Cc4cccc(C)n4)[C@H]3C)nn2)c1OC (stereo in doubt) [Compound 238]
0.01 to 10	500 to 5000	500 to 5000				CNC(=O)c1nnc(NC(=O)C2CC2)cc1Nc1cccc(-c2cn(C3CN(Cc4cccc(Cl)n4)[C@@H]3C)nn2)c1OC (stereo in doubt) [Compound 239]
			0.01 to 10	5000 to 100000	5000 to 100000	CNC(=O)c1nnc(NC(=O)C2CC2)cc1Nc1cccc(-c2ccc(NC(=O)Cc3cccn(C)c3=O)cc2)c1OC [Compound 2]
			0.01 to 10	500 to 5000	5000 to 100000	CNC(=O)c1nnc(NC(=O)C2CC2)cc1Nc1cccc(-c2cnc(C(=O)NCc3cccn(C)c3=O)cn2)c1OC [Compound 7]
			0.01 to 10	500 to 5000	500 to 5000	CNC(=O)c1nnc(NC(=O)C2CC2)cc1Nc1cccc(-c2cnc(C(=O)N(C)Cc3ccccn3)nc2)c1OC [Compound 13]
			0.01 to 10	500 to 5000	500 to 5000	CNC(=O)c1nnc(NC(=O)C2CC2)cc1Nc1cccc(-c2ccc(C(=O)N(C)Cc3ccccn3)nc2)c1OC [Compound 19]
			0.01 to 10	500 to 5000	500 to 5000	CNC(=O)c1nnc(NC(=O)C2CC2)cc1Nc1cccc(-c2cnc(C(=O)N(CCF)Cc3cccn(C)c3=O)c(F)c2)c1OC [Compound 22]
			0.01 to 10	50 to 500	50 to 500	CNC(=O)c1nnc(NC(=O)C2CC2)cc1Nc1cccc(-c2cnc(C(=O)N(C)Cc3ccccn3)c(F)c2)c1OC [Compound 27]
			0.01 to 10	50 to 500	50 to 500	CNC(=O)c1nnc(NC(=O)C2CC2)cc1Nc1cccc(-c2cnc(C(=O)N(C)Cc3cccn(C)c3=O)c(F)c2)c1OC [Compound 29]
			10 to 50	500 to 5000	5000 to 100000	CNC(=O)c1nnc(NC(=O)C2CC2)cc1Nc1cccc(-c2cnn(C3(CC#N)CN(Cc4ccccn4)C3)c2)c1OC [Compound 38]
			0.01 to 10	500 to 5000	500 to 5000	CNC(=O)c1nnc(NC(=O)C2CC2)cc1Nc1ccc(C)c(-c2cnc(C(=O)N(C)Cc3ccn(C)n3)c(F)c2)c1OC [Compound 47]
			0.01 to 10	500 to 5000	500 to 5000	CNC(=O)c1nnc(NC(=O)C2CC2)cc1Nc1cccc(-c2cnc(C(=O)N(C)Cc3ccn(C)n3)nc2)c1OC [Compound 49]
			0.01 to 10	5000 to 100000	5000 to 100000	CNC(=O)c1nnc(NC(=O)C2CC2)cc1Nc1cccc(-c2ccc(C(=O)N(C)C(C)c3nc(C)no3)nc2)c1OC (stereo not drawn) [Compound 50]
			0.01 to 10	50 to 500	50 to 500	CNC(=O)c1nnc(NC(=O)C2CC2)cc1Nc1cccc(-c2ccc(C(=O)N(C)Cc3cn(C)nc3C(F)(F)F)nc2)c1OC [Compound 51]
			0.01 to 10	500 to 5000	500 to 5000	CNC(=O)c1nnc(NC(=O)C2CC2)cc1Nc1cccc(-c2cnc(C(=O)N(C)Cc3ccn(C)n3)c(F)c2)c1OC [Compound 53]
			0.01 to 10	500 to 5000	5000 to 100000	CNC(=O)c1nnc(NC(=O)C2CC2)cc1Nc1cccc(-c2ccc(C(=O)N(C)CC3Cc4ccccc4CO3)nc2)c1OC (stereo not drawn) [Compound 54]
			0.01 to 10	50 to 500	50 to 500	CNC(=O)c1nnc(NC(=O)C2CC2)cc1Nc1cccc(-c2ccc(C(=O)N(C)Cc3cscn3)nc2)c1OC [Compound 57]
